{"source": "patent US12090163B2", "about": "“Pharmaceutical compositions” (CIPLA LIMITED, priority 2017, dated 2024)", "key": {"HIV-1 isolate 89BZ_167": {"test_system": "HIV-1 isolate 89BZ_167", "assay": "In vitro efficacy against HIV-1 in fresh PBMCs (reverse transcriptase activity in supernatant), isolate 89BZ_167", "assay_type": "cell-based", "method": "Fresh human PBMCs, seronegative for HIV and HBV, were isolated from screened donors (Biological Specialty Corporation, Colmar, PA). Cells were pelleted/washed 2-3 times by low speed centrifugation and re-suspension in PBS to remove contaminating platelets. The Leukophoresed blood was then diluted 1:1 with Dulbecco's Phosphate Buffered Saline (DPBS) and layered over 15 mL of Ficoll (GE Healthcare #17-1440-02) in 50 mL centrifuge tube and then centrifuged for 30 minutes at 600×g. Banded PBMCs were gently aspirated from the resulting interface and subsequently washed 2× with PBS by low speed centrifugation. After the final wash, cells were enumerated by tryptan blue exclusion and re-suspended at 1×10^6 cells/mL in RPMI 1640 supplemented with 15% Fetal Bovine Serum (FBS), and 2 mM L-glutamine, 4 μg/mL Phytohemagglutinin (PHA, Sigma). The cells were allowed to incubate for 48-72 hours at 37° C. […] Pooling (mixing) of mononuclear cells from more than one donor was used to minimize the variability observed between individual donors, which results from quantitative and qualitative differences in HIV infection and overall response to the PHA and IL-2 of primary lymphocyte populations. […]"}, "HBV": {"test_system": "HBV", "assay": "Primary anti-HBV assay, extracellular HBV DNA by real-time qPCR from HepG2 2.2.15 cells", "assay_type": "cell-based, HBV wild-type strain ayw1", "method": "The primary anti-HBV assay was performed by using real-time qPCR (TaqMan) to measure extracellular HBV DNA copy number associated with virions released from HepG2 2.2.15 cells. The HepG2 2.2.15 cell line was a stable human hepatoblastoma cell line that contains two copies of the HBV wild-type strain ayw1 genome and constitutively produces high levels of HBV. Antiviral compounds blocking any […] step of viral replication such as transcription, translation, pregenome encapsidation, reverse transcription, particle assembly and release can be identified and characterized using this cell line. Briefly, HepG2 2.2.15 cells were plated in 96-well microtiter plates at 1.5×10^4 cells/well in Dulbecco's Modified Eagle's Medium supplemented with 2% FBS, 380 μg/mL G418, 2.0 mM L-Glutamine, 100 units/mL Penicillin, 100 μg/mL Streptomycin, and 0.1 mM non-essential amino acids. Only the interior wells were utilized to reduce “edge effects” observed during cell culture; the exterior wells were filled with complete medium to help minimize sample evaporation. After 16-24 hours the confluent monolayer of HepG2 2.2.15 cells was washed and the medium was replaced with complete medium containing various concentrations of a test compound in triplicate. Lamivudine (3TC) was used as the positive control, while media alone was added to cells as a negative control (virus control, VC). Three days later the culture medium was replaced with fresh medium containing the appropriately diluted test compounds. Six days following the initial administration of the test compound, the cell culture supernatant was collected, treated with pronase and then used in a real-time quantitative TaqMan qPCR assay. The PCR-amplified HBV DNA was detected in real-time by monitoring increases in fluorescent signal that result from the exonucleolytic degradation of a quenched fluorescent probe molecule that hybridizes to the amplified HBV DNA. […] Antiviral activity was calculated from the reduction in HBV DNA levels (EC50 values determined). […] The Selectivity Index was calculated as CC50/EC50."}}, "note": "Where a name gives a salt, the structure may show the parent alone.", "data": [{"smiles": "C[C@H](Cn1cnc2c(N)ncnc21)OCP(=O)(OCOC(=O)C(C)(C)C)Oc1ccccc1", "note": "(stereo partly drawn) [((((((R)-1-(6-amino-9H-purin-9-yl)propan-2-yl)oxy)methyl)(phenoxy)phosphoryl)oxy)methyl pivalate fumarate]", "values": [{"measurement": "Selectivity Index", "setting": "HIV-1 isolate 89BZ_167; HIV-1 isolate 89BZ_167, PBMCs", "result": 1333}, {"measurement": "EC50", "setting": "HIV-1 isolate 89BZ_167; Human immunodeficiency virus 1, PBMC, HIV-1 isolate 89BZ_167, PHA-stimulated fresh human PBMCs, six-seven days", "result": 20.8, "unit": "nM"}, {"measurement": "Selectivity Index", "setting": "HBV; CC50/EC50, HepG2 2.2.15 cells", "result": ">1250"}, {"measurement": "Conclusion: activity against HBV", "setting": "HBV; HepG2 2.2.15 cells", "result": "potently active"}, {"measurement": "EC50", "setting": "HBV; Hepatitis B virus, 144 h, reduction in extracellular HBV DNA, HepG2 2.2.15 cells, six days", "result": 80, "unit": "nM"}]}]}
